| melting point [°C] | SMILES |
| --- | --- |
| 125 | CCCC(C(N)=O)n1nnc2ccccc21 (stereo unspecified) |
| 125 | CN(C)c1ccc(C(/C=C2\C=Cc3ccccc3N2)c2ccccc2)cc1 (stereo unspecified) |
| 143 | C=CCOc1c(Cc2cc(C(C)=O)c(O)c(C)c2OCC=C)cc(C(C)=O)c(O)c1C |
| 96 | O=C(Nc1ccccc1[N+](=O)[O-])c1ccccc1 |
| 19 | CCCCCCCCCCCO |
| 62 | FC(F)(F)c1cc(Cl)c2cccc(Cl)c2n1 |
| 179 to 181 | CC(C)(C)OC(=O)Nc1ccc(C(=O)O)cc1 |
| 27 to 29 | Cn1ccc2c(C=O)cccc21 |
| 234 to 236 | O=C(Nc1cc(O)cc(C(=O)O)c1)OCC1c2ccccc2-c2ccccc21 |
| 163 | Cc1ccc(CC(=O)Nc2ccc(C)cc2)cc1 |
| 233 | CC(=O)Nc1ccc(-c2ccc(N(Nc3ccccc3)C(C)=O)cc2)cc1 |
| 109 | CC12CCC(C(Br)(CBr)C1=O)C2(C)C (stereo unspecified) |
| 171 | CCN1CCN(C(=O)N[C@@H](C(=O)O)c2ccccc2)C(=O)C1=O |
| 200 | COc1ccc(-c2nnc3n2NCS3)cc1 |
| 130 to 132 | N#Cc1cc(Cl)ccc1Cl |
| 89 to 91 | O=Cc1ccc(-c2ccc(F)c(C(F)(F)F)c2)o1 |
| 53 to 55 | O=C(c1ccccn1)c1ccccn1 |
| -1 | CCOCCOC(=O)CCCCCCCCC(=O)OCCOCC |
| 147 | Cc1oncc1C(=O)O |
| 185 to 187 | CC1(C)CC(=O)c2cc(-c3ccccc3)n(-c3ccc(Cl)cc3)c2C1 |
| 235 to 236 | Oc1cc(Cl)c(-c2ccccc2)nn1 |

| melting point [°C] | SMILES |
| --- | --- |
| 277 | O=c1c(O)c(-c2ccc(O)cc2)oc2cc(O)cc(O)c12 |
| 89 to 94 | CC(C)(C)OC(=O)Nc1ccc(CN)cc1 |
| 185 to 187 | C[C@]12CCC(=O)C=C1CC[C@@H]1[C@@H]2CC[C@@]2(C)[C@H]1CC[C@]2(O)C#Cc1ccccc1 |
| 138 | CC(=O)NC(CC(=O)O)C(=O)O (stereo unspecified) |
| 195 to 197 | COc1cc2c(cc1OC)C(c1ccccc1)N(C(C)=O)CC2 (stereo unspecified) |
| 103 | CC(O)C(NC(=O)OCc1ccccc1)C(=O)O (stereo unspecified) |
| 200 to 201 | CC(/C=C(\C)c1ccc(-c2ccccc2)cc1)=NNc1ccc([N+](=O)[O-])cc1[N+](=O)[O-] |
| 105 | Nc1ccccc1SC(=O)c1ccccc1 |
| 45.5 to 48 | CC(=O)c1csc(-c2ccc(OC(F)(F)F)cc2)n1 |
| 127 to 129 | O=C(O)CSCCS(=O)(=O)c1ccc(Cl)cc1 |
| 178 to 182 | O=C1C=C(Nc2ccccc2)CCC1 |
| 76 to 80 | O=[N+]([O-])c1ccc(S(=O)(=O)F)cc1 |
| 78 to 80 | O=C(Oc1cccc2c1CCC2=O)c1ccccc1 |
| 80 to 82 | O=C(Cl)c1ccc(Oc2ccccc2)nc1 |
| 189 | COc1cc(C=O)ccc1OC1OC(CO)C(O)C(O)C1O (stereo unspecified) |
| 186 | O=[N+]([O-])c1ccc(/C=C/c2ccccc2O)c([N+](=O)[O-])c1 |
| 181 | COc1ccc(C(=O)c2coc(S(N)(=O)=O)c2)cc1 |
| 59 to 61 | CCCCCCCCOc1ccc(C(C)=O)cc1OCCCCCCCC |
| 114 | C#C[C@@]1(OC)CC[C@H]2[C@@H]3CCc4cc(OC)ccc4[C@H]3CC[C@@]21C |
| 254 | CCCOc1ccc2c(c1)C(c1ccc(OC)cc1OCC(=O)O)C(C(=O)O)C2c1ccc2c(c1)OCO2 (stereo unspecified) |
| 197 to 199 | CN(C)c1ccc(C2Nn3c(nnc3-c3cccc([N+](=O)[O-])c3)S2)cc1 (stereo unspecified) |

The next lines start with the molecule.

| SMILES | melting point [°C] |
| --- | --- |
| O=[N+]([O-])c1ccc(C(Cl)C(Cl)c2cccc(C(Cl)C(Cl)c3ccc([N+](=O)[O-])cc3[N+](=O)[O-])c2)c([N+](=O)[O-])c1 (stereo unspecified) | 90 to 108 |
| CC(=O)c1c(-c2ccccc2)cc2ccccc2c1O | 55 |
| O=C1CSC2(CCN(CCCN3c4ccccc4Sc4ccc(Cl)cc43)CC2)N1 | 155 |
| Cc1cc(Br)c(N)cc1OCc1ccccc1 | 137 to 138 |
| O=C(CBr)c1ccc(C(=O)CBr)cc1 | 173 |
| CC1C=CC(C2CC(=O)OC2=O)C12CC2 (stereo unspecified) | 98 |
| CCC(C)n1c(=O)[nH]c(C)c(Br)c1=O (stereo unspecified) | 158 |
| Cn1cc(C=O)c2ccccc21 | 69 |
| Nc1ccccc1C(=NO)c1ccccc1 | 157 to 158 |
| Cc1ccc(C)c(CCC(C)(C)C(=O)O)c1 | 78 |
| O=C(NCO)NCO | 126 |
| CCOC(=O)C=Cc1ccc(O)c(OC)c1 | 57 to 59 |
| O=Cc1cc([N+](=O)[O-])cc([N+](=O)[O-])c1O | 72.5 |
| CC(C)(C)C(=O)Cl | -56 |
| COc1cc(C)cc(OC)c1OC | 36 |
| Cn1ccc2c(S(=O)(=O)Cl)cccc21 | 94 to 98 |
| N#C/C(=C\c1ccc(Cl)cc1Cl)c1nc2ccccc2[nH]1 | 249 |
| N=c1oc2ccccc2cc1-c1nc2ccccc2c(=O)[nH]1 | 275 |
| O=C1CCSCC1 | 62 to 65 |
| CNC(c1cccc(C(F)(F)F)c1)C(NC)c1cccc(C(F)(F)F)c1 (stereo unspecified) | 113 to 115 |
| N[C@@H](CSCc1ccccc1)C(=O)O | 209 to 214 |
| CCCCC(=O)c1ccc(F)cc1 | 27 |

| SMILES | melting point [°C] |
| --- | --- |
| Nc1oncc1-c1ccccn1 | 133 to 136 |
| O=[N+]([O-])c1ccccc1SC1OC(CO)C(O)C(O)C1O (stereo unspecified) | 196 to 203 |
| CC1=NN(CN2CCCCC2)C(=O)/C1=N\Nc1cccc(O)c1 | 204 to 205 |
| CCOC(=S)SSC(=S)OCC | 30 |
| Clc1ccc(C2Nn3c(nnc3-c3ccccc3)S2)cc1 (stereo unspecified) | 196 to 198 |
| CC(=O)OC[C@H]1O[C@@H](O[C@H]2[C@H](OC(C)=O)[C@@H](OC(C)=O)[C@@H](OC(C)=O)O[C@@H]2COC(C)=O)[C@H](OC(C)=O)[C@@H](OC(C)=O)[C@@H]1OC(C)=O | 230 |
| N#Cc1ccc(F)cc1[N+](=O)[O-] | 71 to 73 |
| CCCN(CCOc1c(Cl)cc(Cl)cc1Cl)C(=O)n1ccnc1 | 48.3 |
| C[C@]12CCC(=O)C[C@H]1CC[C@H]1[C@H]3CCC(=O)[C@@]3(C)CC[C@@H]12 | 179 to 180 |
| CC#CC1(O)CCC2C3CC(C)C4=CC(=O)CCC4(C)C3CCC21C (stereo unspecified) | 102 |
| Nc1ccc(C(F)(F)F)cc1 | 38 |
| COc1cc(OC)nc(Sc2cccc3c2C(=O)OC3C)n1 (stereo unspecified) | 163 |
| ClC1CCCC1 | -50 |
| C1OC2COCOC2C2OCOCC2O1 (stereo unspecified) | 232 to 233 |
| Clc1ccc2nc(Cl)sc2c1 | 96 |
| CN1C(=N)NC(=O)C1Cc1ccc(O)cc1 (stereo unspecified) | 221 to 225 |
| CC(C)S(=O)(=O)c1cnc(N2CCCCC2)nc1N | 155 to 158 |
| CCOC(=O)c1cc2cc(OC(F)(F)F)ccc2[nH]1 | 144 to 145 |
| COc1ccc(C(=O)CCl)cc1 | 98 to 100 |
| N#Cc1scc2c1OCCO2 | 70 |
| CCC(C)(Br)CBr (stereo unspecified) | -70 |
| NC(=O)c1ccccn1 | 106 |

— a melting point compilation (Tetko et al.)
